Test results reported in patent publication US7186695B2 (priority 2001, dated 2007).
“Also recorded” adds a separate entry of the source.

Experiments:
BAE cells = test: cells; details: Bos taurus, Endothelial cell, 24 h, read-out: IC50 for viability
[1] = test system: PDI on the endothelial cell surface; test: GSAO-B labelling of cell surface PDI, streptavidin-agarose pull-down and anti-PDI blot; format: cell-based, bovine; details: GSAO-B 100 μM, absence of DMP
Description: FIG. 17. PDI was one of the GSAO-B labelled proteins on the endothelial cell surface. HUVEC (5×10^6 cells in 0.75 mL) were labelled with GSAO-B (100 μM) for 30 minutes at 37° C. in the absence (lanes 1) or presence of DMP (400 μM) (lane 2). The cells were lysed and incubated with streptavidin-agarose beads to collect the biotin-labelled proteins. The labelled proteins were resolved on 4–15% SDS-PAGE, transferred to PVDF membrane, and blotted with anti-PDI monoclonal antibodies. The results represent labelling of 5×10^6 endothelial cells. The positions of Mr markers are shown at left.
BAE cells were labelled with GSAO-B in the absence or presence of DMP, lysed and incubated with streptavidin-agarose beads to collect the biotin-labelled proteins. The labelled proteins were eluted from the beads, resolved on SDS-PAGE, transferred to PVDF membrane, and blotted with anti-PDI polyclonal antibodies.

HMEC-1 or HUVE cells = test: Labelling of endothelial cell surface proteins with GSAO-B; format: cell-based, human; details: GSAO-B 100 μM, 30 minutes
Description: FIG. 16. Identification of endothelial cell surface proteins that contain closely spaced dithiol(s). A The surface of HMEC-1 or HUVE cells (2×10^6 cells in 0.4 mL) was labelled with GSAO-B (100 μM) for 30 minutes at room temperature in the absence (lanes 1 and 3) or presence of DMP (400 μM) (lane 2). The endothelial cells were lysed and the lysate from both incubations was resolved on 4–15% SDS-PAGE, transferred to PVDF membrane, and blotted with streptavidin peroxidase to detect the GSAO-B label. The results represent labelling of 3×10^4 HMEC-1 (lanes 1 and 2) of HUVE cells (lane 3). The positions of Mr markers are shown at left. B Densitometry profile of the surface labelled proteins (lanes 1 and 3). The apparent Mr's of the individual proteins are indicated.
Human umbilical vein endothelial cells (HUVEC) (Wall et al., 1978) and the human dermal microvascular endothelial cell line, HMEC-1 (Ades et al., 1992), were harvested and cultured as indicated. […] Bound proteins were washed 5 times with 50 mM Tris/HCl, pH 8 buffer containing 0.15 M NaCl and 0.05% Triton X-100, resolved on SDS-PAGE, transferred to PVDF membrane, and the GSAO-B-labelled proteins detected by Western blot.

bovine serum albumin = bovine serum albumin (Bos taurus, UniProt P02769); test: Incorporation of GSAO-B into purified protein, streptavidin-peroxidase blot (negative control protein); format: binding; details: GSAO-B 100 μM, protein 5 μM, 30 minutes
Description: (§1) FIG. 14. Interaction of GSAO-B with PDI and thioredoxin. A Structure of GSAO-B. B Purified human recombinant PDI (5 μM), human recombinant thioredoxin (5 μM) or bovine serum albumin (5 μM) was incubated with dithiothreitol (10 μM) for 60 minutes at room temperature to ensure that the active site disulfide(s) of PDI and thioredoxin were in the reduced dithiol form. GSAO-B (100 μM) or GSAO-B and DMP (400 μM) was then added and the reactions incubated for 30 minutes at room temperature. The labelled PDI (lanes 1 and 2), thioredoxin (lanes 3 and 4) and albumin (lane 5) (75 pmoles) was resolved on […] SDS-PAGE, transferred to PVDF membrane, and blotted with streptavidin-peroxidase to detect the GSAO-B label. The positions of Mr markers are shown at left.
Human recombinant PDI and thioredoxin bound GSAO-B (FIG. 14). Recombinant human protein disulfide isomerase (PDI) was produced in E. coli and purified according to Jiang et al. (1999). […] Proteins were detected by Western blot using an anti-PDI murine monoclonal antibody (Jiang et al., 1999) (used at 2 μg per mL). […] Chemiluminescence films were analysed using a GS-700 Imaging Densitometer and Multi-Analyst software (Bio-Rad, Hercules, Calif.).

Thioredoxin = biological target: T1, Thioredoxin (Homo sapiens, UniProt P10599); test: Incorporation of GSAO-B into purified protein, streptavidin-peroxidase blot; format: binding; details: GSAO-B 100 μM, protein 5 μM, 30 minutes
T1 construct: purchased American Diagnostica, Greenwich, Conn; host or cells: E. coli
T1 sequence (P10599 1-105): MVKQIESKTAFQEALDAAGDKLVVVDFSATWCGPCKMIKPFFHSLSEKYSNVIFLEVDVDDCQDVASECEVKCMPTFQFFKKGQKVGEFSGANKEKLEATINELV
Description: as §1
(§2) Human recombinant PDI and thioredoxin bound GSAO-B (FIG. 14). Recombinant human protein disulfide isomerase (PDI) was produced in E. coli and purified according to Jiang et al. (1999). In the experiment, purified PDI, thioredoxin or albumin as negative control were incubated with a 2-fold molar excess of dithiothreitol for 60 minutes to ensure that the active site disulfides of PDI and thioredoxin were in the reduced dithiol state. The proteins were then incubated with GSAOB or GSAO-B and a 4-fold molar excess of DMP for 30 minutes. Equivalent moles of the labelled proteins were resolved on SDS-PAGE, transferred to PVDF membrane, and blotted with streptavidin-peroxidase to detect the GSAO-B label. Samples were resolved on 4–15% SDS-PAGE under non-reducing conditions (Laemmli, 1970) and transferred to PVDF membrane. Proteins were detected by Western blot using an anti-PDI murine monoclonal antibody (Jiang et al., 1999) (used at 2 μg per mL). Rabbit anti-mouse horseradish peroxidase conjugated antibodies (Dako Corporation, Carpinteria, Calif.) were used at 1:2000 dilution. GSAO-B-labelled proteins were blotted with streptavidin peroxidase (Amersham, Sydney, NSW) used at 1:1000 dilution. […] Chemiluminescence films were analysed using a GS-700 Imaging Densitometer and Multi-Analyst software (Bio-Rad, Hercules, Calif.).

Human recombinant PDI = biological target: T2, Human recombinant PDI (Homo sapiens, UniProt P07237); test: as above; format: binding
T2 construct: made in house; host or cells: E. coli
Description: as §1, §2

T2 sequence (P07237 18-508): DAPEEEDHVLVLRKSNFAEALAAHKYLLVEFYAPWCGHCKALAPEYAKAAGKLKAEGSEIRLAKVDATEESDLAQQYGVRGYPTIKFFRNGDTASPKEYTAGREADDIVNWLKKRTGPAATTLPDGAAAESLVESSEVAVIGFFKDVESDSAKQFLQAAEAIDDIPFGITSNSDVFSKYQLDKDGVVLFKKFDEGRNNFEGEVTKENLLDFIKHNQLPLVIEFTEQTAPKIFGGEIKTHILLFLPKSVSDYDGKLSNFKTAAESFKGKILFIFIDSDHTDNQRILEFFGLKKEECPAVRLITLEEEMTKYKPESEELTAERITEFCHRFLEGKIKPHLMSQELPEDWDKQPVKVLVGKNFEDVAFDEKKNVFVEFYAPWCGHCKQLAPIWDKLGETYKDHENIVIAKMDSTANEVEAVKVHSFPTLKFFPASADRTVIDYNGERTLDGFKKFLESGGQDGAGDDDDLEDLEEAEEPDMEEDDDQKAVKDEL
Chain of bovine serum albumin (P02769 25-607): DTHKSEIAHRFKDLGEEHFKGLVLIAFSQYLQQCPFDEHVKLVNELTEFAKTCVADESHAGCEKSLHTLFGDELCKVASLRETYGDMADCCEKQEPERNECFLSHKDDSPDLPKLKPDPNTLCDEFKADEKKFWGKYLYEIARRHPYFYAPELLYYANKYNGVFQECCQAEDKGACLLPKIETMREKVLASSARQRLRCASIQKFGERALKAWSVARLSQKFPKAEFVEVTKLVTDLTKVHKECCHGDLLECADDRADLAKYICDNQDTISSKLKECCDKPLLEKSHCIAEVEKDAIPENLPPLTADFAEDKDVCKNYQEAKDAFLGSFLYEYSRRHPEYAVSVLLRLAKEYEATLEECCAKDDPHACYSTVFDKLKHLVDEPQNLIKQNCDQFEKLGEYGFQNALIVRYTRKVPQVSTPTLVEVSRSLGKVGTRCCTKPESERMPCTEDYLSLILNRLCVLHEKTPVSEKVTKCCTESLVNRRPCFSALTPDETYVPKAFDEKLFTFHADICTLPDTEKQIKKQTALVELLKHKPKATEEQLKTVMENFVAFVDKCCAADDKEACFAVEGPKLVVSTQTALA

For O=[As]c1ccc(NC(=O)CSCCC(=O)N[C@@H](CC(=O)O)C(=O)O)cc1 (stereo partly drawn) [AspAO, N-(3-(4-arsenoso-phenylcarbamoylmethylthio)propanoyl)-L-aspartic acid], the IC50 (BAE cells) was < 1 µM.
O=[As]c1ccc(NC(=O)CSCCC(=O)N[C@@H](CS(=O)(=O)O)C(=O)O)cc1 (stereo partly drawn) [Cys*AO, N-(3-(4-arsenosophenylcarbamoylmethylthio)propanoyl)-L-cysteic acid] was tested, and the IC50 (BAE cells) was < 10 µM.
O=[As]c1ccc(NC(=O)CSCCC(=O)N[C@H]2C(O)O[C@H](CO)[C@@H](O)[C@@H]2O)cc1 (stereo partly drawn) [GlcAO, N-(3-(4-arsenosophenylcarbamoylmethylthio)propanoyl)-D-glucosamine] was tested, and the IC50 (BAE cells) was < 1 µM.
For O=[As]c1ccc(NC(=O)CSCCC(=O)N[C@@H](CCC(=O)O)C(=O)O)cc1 (stereo partly drawn) [GluAO, N-(3-(4-arsenosophenylcarbamoylmethylthio)propanoyl)-L-glutamic acid], the IC50 (BAE cells) was < 10 µM.
In the case of “4-(N-(S-(N-(6-(N-(6-(N-(biotinoyl)-amino)hexanoyl)amino)hexanoyl)glutathiony)acetyl)amino)phenylarsenoxide [GSAO-B]”, the “labelling of cell surface PDI by GSAO-B” value [1] is reported as “PDI was one of the proteins on the endothelial cell surface that incorporated GSAO-B”, the “proteins on the endothelial cell surface that incorporated GSAO-B” value (HMEC-1 or HUVE cells) is reported as “approximately ten proteins” and the “incorporation of GSAO-B” value (bovine serum albumin) is reported as “albumin did not”. The “incorporation of GSAO-B” value (Thioredoxin) was “bound GSAO-B; also recorded: incorporated GSAO-B”, the “incorporation of GSAO-B” value (Human recombinant PDI; GSAO-B 100 μM, protein 5 μM, 30 minutes) was “bound GSAO-B; also recorded: incorporated GSAO-B” and the “density of labelling of PDI relative to thioredoxin” value (Human recombinant PDI; equivalent moles of labelled proteins) was “approximately twice”.
